Reference: paper PMC10439310 (Nature microbiology, 2022)

Assays:
[1] = biological target: T1, BsIMPDH (Bacillus subtilis, UniProt P21879); assay: biochemical
[2] = tested on: A. gossypii IMPDH; conditions: cited from earlier work
[3] = biological target: T1, BsIMPDH; assay: Mass photometry of BsIMPDH tetramer/octamer state; conditions: EC50 of BsIMPDH octamer formation, absence of substrates, 100 nM BsIMPDH
[4] = biological target: T1, BsIMPDH; conditions: 50 μM BsIMPDH, 5 mM ligand, 25 °C
[5] = tested on: E. coli IMPDH; conditions: cited from earlier work
[6] = biological target: T1, BsIMPDH; conditions: for binding to BsIMPDH (in words): ITC, 25 °C, 25 μM BsIMPDH
[7] = biological target: T1, BsIMPDH; assay: biochemical; remark: listed apart in the source
[8] = tested on: BsIMPDH-ΔCBS; conditions: 10 μM Ap4A
[9] = tested on: BsIMPDH-ΔCBS; conditions: presence of IMP and NAD+
[10] = dinucleotide 10 μM, NAD+ constant, IMP variable

T1 sequence (P21879 whole entry): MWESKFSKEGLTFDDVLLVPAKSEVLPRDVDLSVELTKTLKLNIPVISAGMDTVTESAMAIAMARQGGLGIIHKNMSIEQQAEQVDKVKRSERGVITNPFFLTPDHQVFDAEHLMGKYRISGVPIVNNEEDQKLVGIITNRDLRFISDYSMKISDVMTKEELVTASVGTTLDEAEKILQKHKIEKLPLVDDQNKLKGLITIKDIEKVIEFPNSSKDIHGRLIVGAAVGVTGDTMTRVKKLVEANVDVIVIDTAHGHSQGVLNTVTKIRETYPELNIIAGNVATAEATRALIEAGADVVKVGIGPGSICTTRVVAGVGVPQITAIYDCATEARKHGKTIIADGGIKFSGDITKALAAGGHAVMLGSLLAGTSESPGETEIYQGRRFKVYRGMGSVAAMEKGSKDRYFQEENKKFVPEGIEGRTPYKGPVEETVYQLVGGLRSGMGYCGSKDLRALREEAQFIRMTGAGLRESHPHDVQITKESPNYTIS

**Q.** With `Nc1ncnc2c1ncn2[C@@H]1O[C@H](COP(=O)(O)OP(=O)(O)OP(=O)(O)OP(=O)(O)OP(=O)(O)OP(=O)(O)OC[C@H]2O[C@@H](n3cnc4c(N)ncnc43)[C@H](O)[C@@H]2O)[C@@H](O)[C@H]1O` [Ap6A] as the compound, how does the “effect on BsIMPDH activity (in words)” value [1, 10] read?
**A.** resulted in BsIMPDH inhibition

**Q.** What does the source list for `Nc1ncnc2c1ncn2[C@@H]1O[C@H](COP(=O)(O)OP(=O)(O)OP(=O)(O)OP(=O)(O)OC[C@H]2O[C@@H](n3cnc4c(N)ncnc43)[C@H](O)[C@@H]2O)[C@@H](O)[C@H]1O` [Ap4A, diadenosine 5’,5’’’-P1,P4-tetraphosphate]?
**A.** binding (in words) [2]: only with low affinity; Ki [1]: 15.8 µM; effect on BsIMPDH activity (in words) ([1]; Ap4A 1-100 μM): potently reduced BsIMPDH activity; EC50 [3]: 90 µM; effect on conformational flexibility of CBS domains (HDX-MS, in words) [4]: restrict the conformational flexibility of the CBS domains; affinity relative to ATP [5]: five-fold higher affinity than ATP; difference in affinity between Ap4A and ATP ([6]; from ITC Kd values): approximately 700 fold; Kd [7]: 7.4 ± 2.1 µM; Ap4A-dependent regulation of enzymatic activity (in words) [8]: insensitive to Ap4A-dependent regulation; Ap4A-dependent tetramer-to-octamer equilibrium (in words) [9]: insensitive to Ap4A-dependent regulation

**Q.** For `Nc1nc2c(ncn2[C@@H]2O[C@H](COP(=O)(O)OP(=O)(O)OP(=O)(O)OP(=O)(O)OP(=O)(O)OC[C@H]3O[C@@H](n4cnc5c(N)ncnc54)[C@H](O)[C@@H]3O)[C@@H](O)[C@H]2O)c(=O)[nH]1` [Ap5G], which “binding (in words)” value [2] is on record?
**A.** well

**Q.** What about the “binding to BsIMPDH (in words)” value [6] of the same compound?
**A.** No binding

**Q.** Which “binding (in words)” value [2] does the source give for `Nc1nc2c(ncn2[C@@H]2O[C@H](COP(=O)(O)OP(=O)(O)O)[C@@H](O)[C@H]2O)c(=O)[nH]1` [GDP, guanosine-5’-mono-, di-, triphosphate] here?
**A.** well

**Q.** For `Nc1ncnc2c1ncn2[C@@H]1O[C@H](COP(=O)(O)OP(=O)(O)OP(=O)(O)OP(=O)(O)OP(=O)(O)OC[C@H]2O[C@@H](n3cnc4c(N)ncnc43)[C@H](O)[C@@H]2O)[C@@H](O)[C@H]1O` [Ap5A], which “effect on BsIMPDH activity (in words)” value [1, 10] is on record?
**A.** resulted in BsIMPDH inhibition

**Q.** Which “binding to BsIMPDH (in words)” value [6] does the source give for `Nc1nc2c(ncn2[C@@H]2O[C@H](COP(=O)(O)OP(=O)(O)OP(=O)(O)OC[C@H]3O[C@@H](n4cnc5c(N)ncnc54)[C@H](O)[C@@H]3O)[C@@H](O)[C@H]2O)c(=O)[nH]1` [Ap3G] here?
**A.** No binding

**Q.** With `Nc1nc2c(ncn2[C@@H]2O[C@H](COP(=O)(O)OP(=O)(O)OP(=O)(O)OP(=O)(O)OC[C@H]3O[C@@H](n4cnc5c(N)ncnc54)[C@@H](O)C3O)[C@H](O)C2O)c(=O)[nH]1` (some centres unmarked) [Ap4G] as the compound, how does the “binding to BsIMPDH (in words)” value [6] read?
**A.** No binding
